Experimental findings from patent publication US20220332699A1 (SAGE THERAPEUTICS, INC., priority 2019, published 2022) are described below.

pIC50: −log10 of the molar value. Some results are limits rather than exact numbers.

Chain of CYP46A1 (Q9Y6A2 whole entry): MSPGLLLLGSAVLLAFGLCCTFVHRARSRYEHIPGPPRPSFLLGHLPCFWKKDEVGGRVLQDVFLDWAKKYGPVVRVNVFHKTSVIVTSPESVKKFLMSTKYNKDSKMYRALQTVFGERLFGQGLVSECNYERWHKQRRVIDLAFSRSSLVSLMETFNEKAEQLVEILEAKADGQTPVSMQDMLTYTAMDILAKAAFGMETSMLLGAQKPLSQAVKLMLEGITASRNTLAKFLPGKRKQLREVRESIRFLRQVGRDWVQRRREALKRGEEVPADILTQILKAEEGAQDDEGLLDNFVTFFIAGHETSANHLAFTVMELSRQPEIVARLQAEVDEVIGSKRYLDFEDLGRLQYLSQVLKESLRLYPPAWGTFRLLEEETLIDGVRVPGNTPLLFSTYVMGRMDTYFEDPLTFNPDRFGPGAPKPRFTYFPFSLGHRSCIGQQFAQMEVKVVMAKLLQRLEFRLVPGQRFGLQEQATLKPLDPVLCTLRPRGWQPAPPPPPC

For the experiment, the target named is CYP46A1 (Homo sapiens, UniProt Q9Y6A2). Briefly: CYP46A1 Enzyme Assay 2 (testosterone substrate, HPLC-MS). Format: biochemical. The note with it: read-out: IC50 (CYP46A1 inhibitory activity). The method, then:
Briefly, in a 384-well plate format, 10 μL per well of an enzyme-substrate mixture of CYP46A1 (5 μM final concentration) and Testosterone ([…] final concentration) were dispensed to wells containing test compound. For CYP46A1 titration, 5 μL per well of serially diluted CYP46A1 (concentrations including 10 μM, 5 μM, and 2.5 μM) and Testosterone (concentration of […]) were dispensed. For Testosterone titration, 5 μL per well of serially diluted Testosterone (concentrations including 10 μM, 5 μM, and 2.5 μM) and CYP46A1 (concentration of 5 μM) were dispensed. The plates were centrifuged at 1000 rpm for 30 seconds, and then sealed and incubated at 37° C. for 30 minutes. The plate was removed from the incubator, and then 10 μL per well of NADPH-generating system were dispensed to initiate the reaction. The plates were incubated at 37° C. for 15 minutes, added with 80 μL per well of 100% methanol consisting 1 ng/ml diclofenac as internal standard, and then transferred for HPLC-MS.
Regarding `N#CC1(Cc2cc(F)cc(F)c2)CCN(C(=O)c2cccnc2-c2ccncc2)CC1` [Compound A70, 1-([2,4′-bipyridine]-3-carbonyl)-4-(3,5-difluorobenzyl)piperidine-4-carbonitrile], the pIC50 is more than 7.00. Regarding `N#CC1(CCCc2ccccc2)CCN(C(=O)c2cccnc2-c2ccncc2)CC1` [Compound A71, 1-{[2,4′-bipyridine]-3-carbonyl}-4-(3-phenylpropyl)piperidine-4-carbonitrile], the pIC50 was more than 7.00. For the compound `N#CC1(Cc2cccnc2)CCN(C(=O)c2cccnc2-c2ccncc2)CC1` [Compound A72, 1-{[2,4′-bipyridine]-3-carbonyl}-4-[(pyridin-3-yl)methyl]piperidine-4-carbonitrile], the pIC50 is 6.00 to 7.00. Take `N#CC1(Cc2ccc(F)cc2)CCN(C(=O)c2cccnc2-n2cncn2)CC1` [Compound A74, 1-(2-(1H-1,2,4-triazol-1-yl)nicotinoyl)-4-(4-fluorobenzyl)piperidine-4-carbonitrile]: the pIC50 is less than 6.00. In the case of `N#CC1(Cc2ccc(F)cc2)CCN(C(=O)c2cccnc2-c2ccnnc2)CC1` [Compound A200, 4-(4-fluorobenzyl)-1-(2-(pyridazin-4-yl)nicotinoyl)piperidine-4-carbonitrile] it was less than 6.00; in that of `Cc1ccc(CC2(C#N)CCN(C(=O)c3cccnc3-c3ccncn3)CC2)cn1` [Compound A201, 4-((6-methylpyridin-3-yl)methyl)-1-(2-(pyrimidin-4-yl)nicotinoyl)piperidine-4-carbonitrile], more than 7.00; in that of `COc1ccc(CC2(C#N)CCN(C(=O)c3cccnc3-c3ccncn3)CC2)cn1` [Compound A202, 4-((6-methoxypyridin-3-yl)methyl)-1-(2-(pyrimidin-4-yl)nicotinoyl)piperidine-4-carbonitrile], more than 7.00. In the case of `Cc1ncc(CC2(C#N)CCN(C(=O)c3cccnc3-c3ccncn3)CC2)cn1` [Compound A203, 4-((2-methylpyrimidin-5-yl)methyl)-1-(2-(pyrimidin-4-yl)nicotinoyl)piperidine-4-carbonitrile], the pIC50 is less than 6.00.

For the compound `CS(=O)(=O)c1ccc(CC2(C#N)CCN(C(=O)c3cccnc3-c3ccncn3)CC2)cc1` [Compound A204, 4-(4-(methylsulfonyl)benzyl)-1-(2-(pyrimidin-4-yl)nicotinoyl)piperidine-4-carbonitrile], the pIC50 is 6.00 to 7.00. In the case of `N#CC1(Cc2ccc(Cl)cc2F)CCN(C(=O)c2cccnc2-c2ccncn2)CC1` [Compound A205, 4-(4-chloro-2-fluorobenzyl)-1-(2-(pyrimidin-4-yl)nicotinoyl)piperidine-4-carbonitrile], the pIC50 was more than 7.00. As for `N#CC1(Cc2ccc(F)c(F)c2)CCN(C(=O)c2cccnc2-c2ccncn2)CC1` [Compound A206, 4-(3,4-difluorobenzyl)-1-(2-(pyrimidin-4-yl)nicotinoyl)piperidine-4-carbonitrile], the pIC50 was more than 7.00. With `N#CC1(Cc2c(F)cccc2F)CCN(C(=O)c2cccnc2-c2ccncn2)CC1` [Compound A207, 4-(2,6-difluorobenzyl)-1-(2-(pyrimidin-4-yl)nicotinoyl)piperidine-4-carbonitrile], the pIC50 was more than 7.00.

As for `CCc1ccc(CC2(C#N)CCN(C(=O)c3cccnc3-c3ccncn3)CC2)cc1` [Compound A208, 4-(4-ethylbenzyl)-1-(2-(pyrimidin-4-yl)nicotinoyl)piperidine-4-carbonitrile], the pIC50 is more than 7.00. For `N#CC1(Cc2cccc(F)c2F)CCN(C(=O)c2cccnc2-c2ccncn2)CC1` [Compound A209, 4-(2,3-difluorobenzyl)-1-(2-(pyrimidin-4-yl)nicotinoyl)piperidine-4-carbonitrile] the value was more than 7.00; for `N#CC1(Cc2cccc(Cl)c2)CCN(C(=O)c2cccnc2-c2ccncn2)CC1` [Compound A210, 4-(3-chlorobenzyl)-1-(2-(pyrimidin-4-yl)nicotinoyl)piperidine-4-carbonitrile], more than 7.00; for `N#CC1(Cc2ccc(C3CC3)nc2)CCN(C(=O)c2cccnc2-c2ccncn2)CC1` [Compound A211, 4-((6-cyclopropylpyridin-3-yl)methyl)-1-(2-(pyrimidin-4-yl)nicotinoyl)piperidine-4-carbonitrile], more than 7.00. For `N#CC1(Cc2ccc(C3CC3)cc2)CCN(C(=O)c2cccnc2-c2ccncn2)CC1` [Compound A212, 4-(4-cyclopropylbenzyl)-1-(2-(pyrimidin-4-yl)nicotinoyl)piperidine-4-carbonitrile] the value was more than 7.00; for `N#CC1(Cc2cc(F)cc(F)c2)CCN(C(=O)c2cccnc2-c2ccncn2)CC1` [Compound A213, 4-(3,5-difluorobenzyl)-1-(2-(pyrimidin-4-yl)nicotinoyl)piperidine-4-carbonitrile], more than 7.00.

In the case of `N#CC1(Cc2ccccc2C2CC2)CCN(C(=O)c2cccnc2-c2ccncn2)CC1` [Compound A214, 4-(2-cyclopropylbenzyl)-1-(2-(pyrimidin-4-yl)nicotinoyl)piperidine-4-carbonitrile], the pIC50 was more than 7.00.

In the case of `CC[C@H](c1ccc(F)cc1)C1(C#N)CCN(C(=O)c2cccnc2-c2ccncn2)CC1` [Compound A215, (R)-4-(1-(4-fluorophenyl)propyl)-1-(2-(pyrimidin-4-yl)nicotinoyl)piperidine-4-carbonitrile], the pIC50 is more than 7.00. As for `CC[C@@H](c1ccc(F)cc1)C1(C#N)CCN(C(=O)c2cccnc2-c2ccncn2)CC1` [Compound A216, (S)-4-(1-(4-fluorophenyl)propyl)-1-(2-(pyrimidin-4-yl)nicotinoyl)piperidine-4-carbonitrile], the pIC50 was more than 7.00.

Turning to `N#CC1(Cc2ccc(OC(F)(F)F)cc2)CCN(C(=O)c2cccnc2-c2ccncn2)CC1` [Compound A217, 1-(2-(pyrimidin-4-yl)nicotinoyl)-4-(4-(trifluoromethoxy)benzyl)piperidine-4-carbonitrile], the pIC50 is more than 7.00.

For the compound `N#CC1(Cc2cccc(C3CC3)c2)CCN(C(=O)c2cccnc2-c2ccncn2)CC1` [Compound A218, 4-(3-cyclopropylbenzyl)-1-(2-(pyrimidin-4-yl)nicotinoyl)piperidine-4-carbonitrile], the pIC50 is more than 7.00. For the compound `N#CC1(Cc2ccc(F)cc2)CCN(C(=O)c2cc(F)ccc2-c2ccncn2)CC1` [Compound A219, 1-(5-fluoro-2-(pyrimidin-4-yl)benzoyl)-4-(4-fluorobenzyl)piperidine-4-carbonitrile], the pIC50 was more than 7.00. As for `N#CC1(Cc2ccc(F)cc2)CCN(C(=O)c2ccc(F)cc2-c2ccncn2)CC1` [Compound A220, 1-(4-fluoro-2-(pyrimidin-4-yl)benzoyl)-4-(4-fluorobenzyl)piperidine-4-carbonitrile], the pIC50 was more than 7.00. `N#CC1(Cc2ccc(F)cc2)CCN(C(=O)c2c(F)cccc2-c2ccncn2)CC1` [Compound A221, 1-(2-fluoro-6-(pyrimidin-4-yl)benzoyl)-4-(4-fluorobenzyl)piperidine-4-carbonitrile]: the pIC50 is more than 7.00. In the case of `N#CC1(Cc2ccc(C(F)(F)F)nc2)CCN(C(=O)c2cccnc2-c2ccncn2)CC1` [Compound A222, 1-(2-(pyrimidin-4-yl)nicotinoyl)-4-((6-(trifluoromethyl)pyridin-3-yl)methyl)piperidine-4-carbonitrile], the negative-log IC50 (pIC50) is 6.00 to 7.00.
